Key:
[1] = biological target: Serine/threonine-protein kinase PLK3 (Homo sapiens) (UniProt Q9H4B4); test: Inhibition of PLK3 (unknown origin) at 1 uM by single point assay
[2] = biological target: Macrophage colony-stimulating factor 1 receptor (Homo sapiens) (UniProt P07333); test: Inhibition of CSF1R (unknown origin) at 1 uM by single point assay
[3] = biological target: Tyrosine-protein kinase SYK (Homo sapiens) (UniProt P43405); test: Inhibition of SYK (unknown origin) at 1 uM by single point assay
[4] = Ratio of drug uptake in brain to plasma of mouse expressing mouse LRRK2 G2019S mutant at 30 mg/kg, po; type: ADME, organism-based; set-up: dose 30 mg/kg, route oral; conditions: read-out: BPR
[5] = biological target: Protein kinase C beta type (Homo sapiens) (UniProt P05771); test: Inhibition of PKCbeta1 (unknown origin) at 1 uM by single point assay
Mus musculus [6] = test: In vivo inhibition of mouse LRRK2 G2019S mutant phosphorylation at Ser935 expressed in mouse brain at 30 mg/kg, po measured after 3 hrs by ELISA; type: functional
Mus musculus [7] = test: In vivo inhibition of mouse LRRK2 G2019S mutant phosphorylation at Ser935 expressed in mouse brain at 100 mg/kg, po measured after 3 hrs by ELISA; type: functional
[8] = biological target: Insulin receptor (Homo sapiens) (UniProt P06213); test: Inhibition of INSR (unknown origin) at 1 uM by single point assay
Plasma = test: Plasma concentration in mouse expressing mouse LRRK2 G2019S mutant at 30 mg/kg, po; type: ADME, organism-based; set-up: dose 30 mg/kg, route oral; conditions: in vivo
[9] = biological target: Proto-oncogene tyrosine-protein kinase receptor Ret (Homo sapiens) (UniProt P07949); test: Inhibition of RET (unknown origin) at 1 uM by single point assay
[10] = biological target: Cyclin-dependent kinase 5/CDK5 activator 1 (Homo sapiens) (UniProt Q00535+Q15078); test: Inhibition of CDK5/p25 (unknown origin) at 10 uM by single point assay; type: protein-complex assay
[11] = biological target: Proto-oncogene tyrosine-protein kinase receptor Ret (Homo sapiens) (UniProt P07949); test: Inhibition of RET (unknown origin) at 10 uM by single point assay
[12] = biological target: Tyrosine-protein kinase JAK1 (Homo sapiens) (UniProt P23458); test: Inhibition of JAK1 (unknown origin) at 10 uM by single point assay
[13] = biological target: Receptor-interacting serine/threonine-protein kinase 2 (Homo sapiens) (UniProt O43353); test: Inhibition of RIPK2 (unknown origin) at 10 uM by single point assay
[14] = biological target: Serine/threonine-protein kinase PAK 4 (Homo sapiens) (UniProt O96013); test: Inhibition of PAK4 (unknown origin) at 10 uM by single point assay
[15] = biological target: T1, Dual specificity protein kinase TTK (Homo sapiens) (UniProt P33981); test: Inhibition of TTK (unknown origin) at 10 uM by single point assay
T1 sequence (whole entry): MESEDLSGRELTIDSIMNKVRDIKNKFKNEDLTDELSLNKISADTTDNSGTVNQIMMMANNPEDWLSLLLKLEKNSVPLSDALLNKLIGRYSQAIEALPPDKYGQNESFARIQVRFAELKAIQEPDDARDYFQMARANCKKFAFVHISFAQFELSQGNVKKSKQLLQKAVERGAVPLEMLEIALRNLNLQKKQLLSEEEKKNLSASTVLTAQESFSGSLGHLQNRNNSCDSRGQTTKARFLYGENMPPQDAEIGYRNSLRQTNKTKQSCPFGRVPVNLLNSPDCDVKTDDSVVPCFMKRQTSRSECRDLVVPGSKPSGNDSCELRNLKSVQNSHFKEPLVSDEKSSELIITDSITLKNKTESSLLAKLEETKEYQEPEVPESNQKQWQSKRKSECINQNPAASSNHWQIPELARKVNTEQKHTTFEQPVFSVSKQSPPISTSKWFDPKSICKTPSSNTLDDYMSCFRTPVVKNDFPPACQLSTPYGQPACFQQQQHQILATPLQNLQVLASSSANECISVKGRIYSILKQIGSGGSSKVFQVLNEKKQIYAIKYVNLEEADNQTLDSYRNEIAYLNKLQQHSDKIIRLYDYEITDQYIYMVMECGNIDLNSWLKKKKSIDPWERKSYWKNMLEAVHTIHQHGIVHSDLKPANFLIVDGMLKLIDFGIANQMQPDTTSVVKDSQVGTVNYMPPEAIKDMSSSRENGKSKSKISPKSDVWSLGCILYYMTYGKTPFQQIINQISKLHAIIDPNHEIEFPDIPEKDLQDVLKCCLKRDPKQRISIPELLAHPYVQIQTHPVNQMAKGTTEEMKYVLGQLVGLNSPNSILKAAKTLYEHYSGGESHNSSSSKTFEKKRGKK

[16] = biological target: Macrophage colony-stimulating factor 1 receptor (Homo sapiens) (UniProt P07333); test: Inhibition of CSF1R (unknown origin) at 10 uM by single point assay
[17] = biological target: Serine/threonine-protein kinase PLK1 (Homo sapiens) (UniProt P53350); test: Inhibition of PLK1 (unknown origin) at 10 uM by single point assay
[18] = biological target: T2, Interleukin-1 receptor-associated kinase 4 (Homo sapiens) (UniProt Q9NWZ3); test: Inhibition of IRAK4 (unknown origin) at 10 uM by single point assay
T2 sequence (whole entry): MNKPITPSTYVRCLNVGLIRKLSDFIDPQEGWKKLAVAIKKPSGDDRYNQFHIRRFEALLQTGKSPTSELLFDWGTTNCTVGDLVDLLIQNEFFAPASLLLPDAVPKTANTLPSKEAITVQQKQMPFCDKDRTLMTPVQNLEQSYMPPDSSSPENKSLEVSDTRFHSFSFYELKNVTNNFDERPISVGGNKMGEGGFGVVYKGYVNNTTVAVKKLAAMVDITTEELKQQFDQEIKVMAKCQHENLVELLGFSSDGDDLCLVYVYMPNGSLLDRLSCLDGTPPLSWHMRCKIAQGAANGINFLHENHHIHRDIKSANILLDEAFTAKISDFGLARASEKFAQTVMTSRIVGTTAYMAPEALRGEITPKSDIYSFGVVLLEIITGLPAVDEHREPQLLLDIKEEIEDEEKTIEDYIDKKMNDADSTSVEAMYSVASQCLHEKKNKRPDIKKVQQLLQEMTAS

[19] = biological target: Protein-tyrosine kinase 2-beta (Homo sapiens) (UniProt Q14289); test: Inhibition of PTK2B (unknown origin) at 10 uM by single point assay
[20] = biological target: Protein kinase C beta type (Homo sapiens) (UniProt P05771); test: Inhibition of PKCbeta1 (unknown origin) at 10 uM by single point assay
[21] = biological target: PI3-kinase p110-alpha/p85-alpha (Homo sapiens) (UniProt P27986+P42336); test: Inhibition of PIK3CA/PIK3R1 (unknown origin) at 10 uM by single point assay; type: protein-complex assay

Sequence of Proto-oncogene tyrosine-protein kinase receptor Ret (Homo sapiens) (P07949 whole entry): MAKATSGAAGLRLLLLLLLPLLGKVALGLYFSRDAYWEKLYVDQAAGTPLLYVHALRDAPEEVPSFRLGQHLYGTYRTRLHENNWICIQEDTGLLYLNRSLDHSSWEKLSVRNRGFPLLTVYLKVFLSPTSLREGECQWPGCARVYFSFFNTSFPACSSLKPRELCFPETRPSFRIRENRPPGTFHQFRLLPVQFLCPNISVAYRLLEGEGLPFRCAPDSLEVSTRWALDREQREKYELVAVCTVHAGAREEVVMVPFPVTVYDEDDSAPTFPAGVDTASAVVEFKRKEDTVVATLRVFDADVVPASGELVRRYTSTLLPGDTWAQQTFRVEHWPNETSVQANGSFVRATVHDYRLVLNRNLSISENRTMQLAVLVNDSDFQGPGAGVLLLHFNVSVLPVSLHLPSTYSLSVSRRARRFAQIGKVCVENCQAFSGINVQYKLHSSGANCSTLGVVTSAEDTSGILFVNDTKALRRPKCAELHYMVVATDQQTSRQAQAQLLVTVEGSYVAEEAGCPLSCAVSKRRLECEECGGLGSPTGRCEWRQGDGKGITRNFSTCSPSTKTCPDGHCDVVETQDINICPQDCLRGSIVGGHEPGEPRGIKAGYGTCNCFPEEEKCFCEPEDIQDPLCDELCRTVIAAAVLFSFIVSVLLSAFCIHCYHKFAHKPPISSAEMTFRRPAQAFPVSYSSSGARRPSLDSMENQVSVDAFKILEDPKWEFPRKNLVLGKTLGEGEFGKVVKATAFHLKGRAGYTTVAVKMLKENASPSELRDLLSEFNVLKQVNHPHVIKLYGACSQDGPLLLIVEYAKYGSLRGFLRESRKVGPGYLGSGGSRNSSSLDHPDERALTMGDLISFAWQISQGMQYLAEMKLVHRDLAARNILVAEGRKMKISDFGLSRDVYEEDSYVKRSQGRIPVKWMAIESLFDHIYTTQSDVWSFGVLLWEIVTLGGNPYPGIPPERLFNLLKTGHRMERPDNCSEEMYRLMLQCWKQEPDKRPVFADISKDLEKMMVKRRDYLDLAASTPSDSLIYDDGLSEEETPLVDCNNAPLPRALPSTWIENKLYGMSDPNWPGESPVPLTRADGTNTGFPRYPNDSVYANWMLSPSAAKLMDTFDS
Sequence of Macrophage colony-stimulating factor 1 receptor (Homo sapiens) (P07333 whole entry): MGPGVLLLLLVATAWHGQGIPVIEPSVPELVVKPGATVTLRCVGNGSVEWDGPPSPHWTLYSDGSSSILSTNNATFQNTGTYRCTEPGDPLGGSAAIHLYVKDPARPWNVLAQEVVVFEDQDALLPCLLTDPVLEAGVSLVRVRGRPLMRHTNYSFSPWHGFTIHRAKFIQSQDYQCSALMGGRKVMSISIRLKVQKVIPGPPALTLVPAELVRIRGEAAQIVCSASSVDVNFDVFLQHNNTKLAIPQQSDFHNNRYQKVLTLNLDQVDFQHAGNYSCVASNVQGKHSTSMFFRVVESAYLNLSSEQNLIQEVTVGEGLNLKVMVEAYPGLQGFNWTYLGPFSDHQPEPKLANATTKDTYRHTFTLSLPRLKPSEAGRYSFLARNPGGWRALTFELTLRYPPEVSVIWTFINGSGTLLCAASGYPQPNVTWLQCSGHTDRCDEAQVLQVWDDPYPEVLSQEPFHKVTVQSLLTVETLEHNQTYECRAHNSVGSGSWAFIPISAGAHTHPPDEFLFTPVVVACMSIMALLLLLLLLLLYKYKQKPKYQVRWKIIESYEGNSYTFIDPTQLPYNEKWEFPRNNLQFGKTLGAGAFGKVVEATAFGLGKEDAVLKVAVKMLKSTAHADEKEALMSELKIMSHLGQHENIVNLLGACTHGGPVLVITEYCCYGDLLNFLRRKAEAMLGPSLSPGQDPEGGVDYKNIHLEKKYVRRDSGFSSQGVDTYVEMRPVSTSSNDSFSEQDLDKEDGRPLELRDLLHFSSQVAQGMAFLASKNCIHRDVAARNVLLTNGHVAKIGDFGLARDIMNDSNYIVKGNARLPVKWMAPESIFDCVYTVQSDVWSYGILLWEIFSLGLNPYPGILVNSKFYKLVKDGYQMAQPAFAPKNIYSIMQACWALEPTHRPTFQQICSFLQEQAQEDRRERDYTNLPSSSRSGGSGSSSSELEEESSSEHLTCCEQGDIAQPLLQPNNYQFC
Sequence of Protein kinase C beta type (Homo sapiens) (P05771 2-671 limits assumed): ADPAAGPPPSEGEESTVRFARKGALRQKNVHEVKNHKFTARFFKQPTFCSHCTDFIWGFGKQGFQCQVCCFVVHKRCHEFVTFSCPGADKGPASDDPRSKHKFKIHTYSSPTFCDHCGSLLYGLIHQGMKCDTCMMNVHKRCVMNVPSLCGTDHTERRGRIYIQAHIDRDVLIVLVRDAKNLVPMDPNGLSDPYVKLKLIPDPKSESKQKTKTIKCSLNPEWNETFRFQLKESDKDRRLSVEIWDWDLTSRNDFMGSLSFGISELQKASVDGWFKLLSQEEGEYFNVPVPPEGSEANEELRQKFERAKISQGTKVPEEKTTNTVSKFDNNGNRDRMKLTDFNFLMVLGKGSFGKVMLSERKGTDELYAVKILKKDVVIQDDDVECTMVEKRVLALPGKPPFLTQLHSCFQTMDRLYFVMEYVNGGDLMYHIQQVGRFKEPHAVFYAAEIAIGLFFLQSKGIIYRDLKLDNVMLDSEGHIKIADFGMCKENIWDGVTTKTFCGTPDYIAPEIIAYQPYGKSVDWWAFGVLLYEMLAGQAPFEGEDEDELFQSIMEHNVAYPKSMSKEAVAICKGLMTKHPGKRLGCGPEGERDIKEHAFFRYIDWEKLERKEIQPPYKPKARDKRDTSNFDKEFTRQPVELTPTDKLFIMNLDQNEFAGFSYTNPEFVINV
Sequence of Insulin receptor (Homo sapiens) (P06213 28-758 limits assumed): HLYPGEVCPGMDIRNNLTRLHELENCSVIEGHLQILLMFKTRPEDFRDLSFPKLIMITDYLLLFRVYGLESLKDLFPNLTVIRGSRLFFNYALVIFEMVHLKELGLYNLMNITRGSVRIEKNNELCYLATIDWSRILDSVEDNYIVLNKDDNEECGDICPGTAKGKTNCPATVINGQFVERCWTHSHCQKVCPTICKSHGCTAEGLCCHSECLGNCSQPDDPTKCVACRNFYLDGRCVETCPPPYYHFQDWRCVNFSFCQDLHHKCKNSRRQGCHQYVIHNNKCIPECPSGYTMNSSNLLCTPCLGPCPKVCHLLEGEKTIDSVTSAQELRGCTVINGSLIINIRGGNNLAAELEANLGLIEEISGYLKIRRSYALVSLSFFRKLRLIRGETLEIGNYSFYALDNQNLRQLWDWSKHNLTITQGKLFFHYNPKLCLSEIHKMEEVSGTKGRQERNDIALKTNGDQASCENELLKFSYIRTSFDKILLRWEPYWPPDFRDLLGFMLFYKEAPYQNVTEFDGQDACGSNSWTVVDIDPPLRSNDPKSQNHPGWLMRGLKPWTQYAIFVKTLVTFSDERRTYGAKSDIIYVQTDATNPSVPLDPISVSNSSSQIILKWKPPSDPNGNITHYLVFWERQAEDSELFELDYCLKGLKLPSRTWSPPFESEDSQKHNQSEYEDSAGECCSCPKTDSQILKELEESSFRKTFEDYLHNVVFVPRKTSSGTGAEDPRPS
Sequence of Insulin receptor (Homo sapiens) (P06213 763-1382 limits assumed): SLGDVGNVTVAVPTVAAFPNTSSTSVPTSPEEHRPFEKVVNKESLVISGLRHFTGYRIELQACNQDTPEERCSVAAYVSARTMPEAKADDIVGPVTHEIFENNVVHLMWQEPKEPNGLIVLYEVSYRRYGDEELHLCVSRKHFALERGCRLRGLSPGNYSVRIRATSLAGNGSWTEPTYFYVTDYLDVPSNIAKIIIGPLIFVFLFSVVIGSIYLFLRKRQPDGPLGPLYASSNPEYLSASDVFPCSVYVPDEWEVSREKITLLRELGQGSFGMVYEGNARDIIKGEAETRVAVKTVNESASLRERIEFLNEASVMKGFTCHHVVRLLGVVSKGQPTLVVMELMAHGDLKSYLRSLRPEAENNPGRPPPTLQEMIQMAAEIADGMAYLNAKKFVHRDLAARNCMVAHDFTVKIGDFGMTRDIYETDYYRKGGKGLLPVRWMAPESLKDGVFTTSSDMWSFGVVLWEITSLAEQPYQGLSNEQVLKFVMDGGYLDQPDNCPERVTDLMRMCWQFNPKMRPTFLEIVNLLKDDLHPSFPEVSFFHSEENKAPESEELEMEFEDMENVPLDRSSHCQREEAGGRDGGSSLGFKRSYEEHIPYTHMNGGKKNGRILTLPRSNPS
Sequence of Serine/threonine-protein kinase PLK3 (Homo sapiens) (Q9H4B4 whole entry, looked up): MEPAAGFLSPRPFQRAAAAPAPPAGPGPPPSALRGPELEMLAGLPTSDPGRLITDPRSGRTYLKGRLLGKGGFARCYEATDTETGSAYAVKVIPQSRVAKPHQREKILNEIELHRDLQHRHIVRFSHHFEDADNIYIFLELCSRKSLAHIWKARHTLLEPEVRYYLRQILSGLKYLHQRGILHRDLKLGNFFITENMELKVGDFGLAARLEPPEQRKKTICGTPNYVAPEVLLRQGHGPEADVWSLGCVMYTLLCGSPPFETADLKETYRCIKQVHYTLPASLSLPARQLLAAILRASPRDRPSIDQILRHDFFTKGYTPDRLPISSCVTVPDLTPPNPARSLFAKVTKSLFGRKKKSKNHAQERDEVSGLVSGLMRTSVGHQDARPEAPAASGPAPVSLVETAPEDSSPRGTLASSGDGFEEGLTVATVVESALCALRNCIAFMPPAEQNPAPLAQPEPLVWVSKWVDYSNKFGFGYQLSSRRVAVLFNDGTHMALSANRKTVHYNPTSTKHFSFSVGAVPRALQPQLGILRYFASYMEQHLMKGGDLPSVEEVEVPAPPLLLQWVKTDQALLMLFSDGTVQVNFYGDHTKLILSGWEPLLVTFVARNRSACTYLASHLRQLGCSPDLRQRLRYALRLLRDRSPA

## CC(C)Nc1c(C#N)cnc2cc(-c3cnn(C)c3)ccc12
[1]
  inhibition: 12%
[2]
  inhibition: 67%
[3]
  inhibition: 92%
[4]
  Kp: 1.2
[5]
  inhibition: -7%
Mus musculus [6]
  inhibition in vivo at 30 mg/kg: 30%
Mus musculus [7]
  inhibition in vivo at 100 mg/kg: 44%
[8]
  inhibition: 1%
Plasma
  Cp: 4.7 ng/mL
[9]
  inhibition: 41%

## C[C@@H](Nc1c(C#N)cnc2cc(-c3ccc(-n4ccoc4=O)cc3)ccc12)C1CC1
[10]
  inhibition: 5%
[11]
  inhibition: 12%
[12]
  inhibition: 4%
[13]
  inhibition: 56%
[14]
  inhibition: 19%
[15]
  inhibition: 11%
[16]
  inhibition: 39%
[17]
  inhibition: 8%
[18]
  inhibition: 10%
[19]
  inhibition: 16%
[20]
  inhibition: -2%
[21]
  inhibition: 13%

## CC(C)Nc1c(C#N)cnc2cc(-c3ccc(S(C)(=O)=O)cc3)ccc12
[1]
  inhibition: 13%
[2]
  inhibition: 60%
[3]
  inhibition: 80%
[5]
  inhibition: 19%
[8]
  inhibition: 6%
[9]
  inhibition: 43%
